Test results published in patent US10245255B2, “Compositions and methods for the treatment of obesity and related disorders” (THE REGENTS OF THE UNIVERSITY OF MICHIGAN, priority 2011, dated 2019).
Entries after “also recorded” stand apart in the source; their conditions may differ.

Columns and labels:
[1] = test system: 3T3-L1 adipocytes; experiment: 3T3-L1 adipocytes: phosphorylation (immunoblot) and lipolysis; type: cell-based
Experimental: 3T3-L1 fibroblasts (American Type Culture Collection, Manassas, Va.) were cultured and differentiated using standard methods known in the art. […] 3T3-L1 adipocytes were serum starved with 0.5% fetal bovine serum (FBS) in Dulbecco's modified eagle medium (DMEM) prior to treatment. TNFα treatments (50 ng/mL unless otherwise noted) were performed during the 24 hour prior to harvest, after pretreatment with IKKβ inhibitor compound VIII (EMD Biosciences, Philadelphia, Pa.) for 1 hour where indicated. […] Cells were treated with or without 10 nM of insulin for 15 minutes. RAW264.7 cells were serum starved with 0.5% FBS DMEM media and pre-treated with or without Cay-10576 (Cayman Chemical, Ann Arbor, Mich.). The cells were then treated with LPS (0.5 μg/ml) or poly I:C (50 μg/ml) for 1 hour. Cells were harvested for total RNA and analyzed by real-time PCR Cell lysates were resolved on SDS-PAGE and analyzed by immunoblot using the indicated antibodies.

[2] = High fat diet prevention group: body weight and food intake; type: in vivo, C57BL/6 mice
Experimental: (§1) Wild type male C57BL/6 mice were fed a high fat diet consisting of 45% of calories from fat (D12451 Research Diets Inc., New Brunswick, N.J.) starting at 8 weeks of age for 12-24 weeks, while normal diet C57BL/6 controls were maintained on normal chow diet consisting of 4.5% fat (5002 Lab Diet, Philadelphia, Pa.). Diets containing ω-3 fatty acids were fed as previously described 24. Rosiglitazone treatment was administered for three weeks by addition of the compound to the diet in mice that had been on HFD for 16 weeks. Each mouse consumed on average 3.5 mg/kg rosiglitazone per day. Amlexanox was administered by daily oral gavage. […] Animals were housed in a specific pathogen-free facility with a 12-hour light/12-hour dark cycle and given free access to food and water. All animal use was in compliance with the Institute of Laboratory Animal Research Guide for the Care and Use of Laboratory Animals and approved by the University Committee on Use and Care of Animals at the University of Michigan and UCSD.
The remaining weight of food provided was determined daily for singly housed mice. Daily food consumption was calculated from a three-day average.

[3] = Ob/ob mice: glucose tolerance tests; type: in vivo; conditions: 100 mg/kg
Experimental: Particular physiological tests were used during the development of the technology provided herein. For example, in some of the experiments described below, subjects were tested for tolerance of injected glucose and insulin according to the methods described in Chiang et al. (“The protein kinase IKKepsilon regulates energy balance in obese mice”, Cell (2009) 138: 961-975, incorporated herein by reference in its entirety for all purposes). In some of the experiments described below, subjects were tested for tolerance of oral glucose. In particular, mice were fasted for 6 hours before the studies. For ob/ob mice, 1.0-1.5 mg/g of glucose was gavaged into mice, and blood glucose was measured with a glucometer (e.g., OneTouch Ultra glucometer). Measurement of triglycerides, mRNA, and cytokines were performed according to the methods described in Chiang et al. (The protein kinase IKKepsilon regulates energy balance in obese mice. Cell (2009) 138: 961-975).
For glucose tolerance tests, after a six-hour fast mice were orally gavaged with glucose at a dose of 1.5 g/kg (C57BL/6 mice) or 1.2 g/kg (ob/ob mice). […] Blood glucose was measured at basal, 15, 30, 45, 60, 90, 120 and 180 minutes from tail blood using the One Touch Ultra glucometer (Lifescan, Milpitas, Calif.).

[4] = Diet-induced obesity treatment group: blood chemistry; type: in vivo, C57BL/6 mice
Experimental: as §1
Blood glucose was measured by OneTouch Ultra Glucometer. Plasma from mice fasted for six hours was isolated from whole blood collected into heparinized tubes. Insulin concentrations were measured by insulin ELISA kit (Crystal Chem Inc., Downers Grove, Ill.). Leptin and adiponectin levels were measured by ELISA kits purchased from Cayman Chem Inc. (Ann Arbor, Mich.). Cytokine levels were quantified utilizing luminex technology in a multianalyte panel plate purchased from Millipore (Billerica, Mass.). Additionally, TNFα levels were measured using ELISA kits purchased from R&D Systems (Minneapolis, Minn.).

[5] = cells chronically treated with TNFα

With CC(C)c1ccc2oc3nc(N)c(C(=O)O)cc3c(=O)c2c1 [amlexanox, 2-amino-7-isopropyl-5-oxo-5H-chromeno[2,3-b]pyridine-3-carboxylic acid] the “basal lipolytic rate (glycerol release)” value [1] was “increased”, the “poly I:C-stimulated phosphorylation of IRF3 (serine 396)” value ([1]; 1 hour pre-treatment, 20 μg/ml poly I:C) was “blocked; also recorded: inhibition” and the “down regulation of PPARγ produced by TNFα” value [1, 5] was “did not affect”. For the same compound, the “forskolin stimulated hormone sensitive lipase phosphorylation (serine 660)” value [1, 5] was “restored; also recorded: partially restores”, the “phosphorylation of TBK1 at serine 172 in TNFα-treated cells” value [1, 5] was “restored” and the “phosphorylation of TBK1 on serine 172” value ([1]; two-fold serial dilution, highest concentration 50 μM, with and without poly I:C) was “increased phosphorylation; also recorded: induction”. For the same compound, the “body weight compared with control diet mice” value ([2]; 45% fat diet, 25 or 100 mg/kg, throughout 12 weeks) was “maintained weights equivalent to those of control diet mice”, the “weight gain produced by high-fat diet” value ([2]; 45% fat diet, daily gavage, either dose 25 or 100 mg/kg) was “prevented the weight gain” and the “weight gain after switching to 60% fat diet” value ([2]; both doses 25 and 100 mg/kg, after 12 weeks on 45% fat diet) was “prevented substantial weight gain”. For the same compound, the “tolerance to injected glucose” value ([3]; 5-week period) was “faster clearance of blood glucose”, the “reduction in the area under the curve (oral glucose tolerance)” value ([3]; 8-week period, relative to control mice) was 30-40% and the fasting serum insulin ([4]; 25 mg/kg for 8 weeks after established diet-induced obesity) was “reversed elevations”. For the same compound, the “decrease in fasting levels of leptin” value ([4]; 25 mg/kg, HFD, treatment phase) was 80%, the serum cholesterol ([4]; 25 mg/kg, HFD, treatment phase) was “unchanged” and the “serum free fatty acids” value ([4]; 25 mg/kg, HFD, treatment phase) was “unchanged”. The serum triglycerides ([4]; 25 mg/kg, HFD, treatment phase) was “unchanged”.
